Measured values taken from PMC9792601, “Conformational switch and multiple supramolecular structures of a newly identified self-assembling protein-mimetic peptide from Pseudomonas aeruginosa YeaZ protein” (Frontiers in Chemistry, 2022).
Ends that are not written are not given here.

Experiments:
[1] = 20 mM hydrogel in Milli-Q water, room temperature, 10 months
Procedure: To prepare the hydrogels at different concentration, the lyophilized PMP-2 was dissolved in the suitable amount of Milli-Q water (final concentration of the prepared solutions: 0.1, 1, 2, 5, 10, and 20 mM) heating at 60°C for 3 min and sonicating for 1 min. The clear solutions were left cooling at rt.
5 Preparation of the PMP-2-based hydrogels
PMP-2 was dissolved in the suitable amount of milliQ water (final concentration of the prepared
solutions: 0.1 mM, 1 mM, 2 mM, 5 mM, 10 mM and 20 mM) heating at 60 °C for 3 minutes and
sonicating for 1 min. The clear solutions were left cooling at rt.
The 20 mM hydrogel was kept at room

[2] = Solubility observations in solvents; assay type: physicochemical
[3] = Dynamic Light Scattering of aggregates; assay type: physicochemical; details: 25°C, aged 24 h
Procedure: Malvern Zetasizer Nano instrument (Malvern Panalytical, Ltd.) was employed for Dynamic Light Scattering (DLS) analysis, performed at 25°C. The instrument is equipped with a 633 nm […] He–Ne laser at a scattering angle of 173°. All the samples used to analyze the stability of the PMP-2 aggregates as a function of different DMSO/water ratio were prepared by solvent displacement technique starting from concentrated solutions in 100% DMSO (0.125, 0.2, 0.5, 2, 4, and 10 mM) to obtain 0.1 mM final concentrations in Milli-Q water, with 80%, 50%, 20%, 10%, 5%, 2.5% and 1% v/v of DMSO, respectively. All the samples used to analyze the stability of the PMP-2 aggregates as a function of concentration were prepared starting from 0.1 mM in Milli-Q water with 5% v/v of DMSO and diluting with Milli-Q water to obtain the final concentration of 0.05, 0.01, 0.005, and 0.001 mM. The corresponding refractive index and viscosity data of DMSO/water mixtures are reported in the literature ([LeBel and Goring, 1962]) and the samples were aged 24 h at room temperature before the measurements.

AIAIGVVQGLAFALGGKKKG [PMP-2]
stability of hydrogel on storage [1]: complete stability
highest reachable concentration in DMSO ([2]; DMSO): 20 mM
solubility in water ([2]; water, room temperature): low solubility at room temperature
DLS aggregate stability ([3]; 0.1 mM, 5, 2.5 and 1% v/v DMSO/water): presence of stable aggregates
DLS aggregate stability ([3]; 0.1 mM, 20% and 10% DMSO in water): formation of some stable aggregates
DLS aggregate stability ([3]; 0.1 mM, 100, 80 and 50% v/v DMSO/water): very poor scattering power
